# Measurements taken from patent US20220280486A1, “COMBINED CANCER THERAPY INVOLVING CHEMICAL ACTIVATION OF INTEGRINS AND TARGETED CELL IMMUNOTHERAPY” (The Regents of the University of California, priority 2019, published 2022).
# Entries after “also recorded” stand apart in the source; their conditions may differ.
# Tests used:
# [1] = test system: complement-opsonized CD47+ mouse red blood cells; details: 1 mM manganese
# Method: For the mouse red blood cell internalization assay, 30,000 RAW264.7 macrophages (ATCC) were plated in one well of a 96-well glass bottom MatriPlate (Brooks, MGB096-1-2-LG-L) between 12 and 24 hours prior to the experiment. Mouse red blood cells (RBCs) (Innovative Research, 88R-M001) were washed into PBS and stained with CSFE (Thermo Fisher, C34554) or Alexa Fluor 488 NHS Ester (ThermoFisher, A20000) for 1 hr at room temperature. RBCs were then opsonized with C3bi as previously described (Chow et al., 2004). Briefly, RBCs were incubated with anti-mouse IgM (MyBioSource, MBS524107) for 1 hour at 37° C. A portion of RBCs were separated for IgM controls, and the remaining RBCs were incubated with C5 deficient serum (Sigma-Aldrich, C1163) for 1 hour at 37° C. Macrophages were washed into serum-free HEPES imaging buffer and incubated with 150 ng/mL PMA and 1 mM Manganese or water. ˜1×10^6 RBCs were added to each well and engulfment was allowed to proceed for 1 hour in incubator. Cells were washed with PBS, unengulfed RBCs were lysed with water for 2 min, and cells were fixed with 4% PFA. Remaining non-lysed, non-engulfed RBCs were stained with APC anti-iC3b antibody (Biolegend, 1:200 dilution, 846106) for 30 minutes. Macrophages were stained with CellMask orange (ThermoFisher, 1:5,000 dilution) and Hoechst (Invitrogen, H3570, 1:1,000 dilution) for 15 minutes. […]
# RAW264.7 macrophages = test: Engulfment of supported lipid bilayer-coated silica beads by macrophages (confocal quantification); assay type: cell-based; details: for engulfment of IgG-coated beads in the absence of CD47: manganese treatment, IgG titration
# Method: 8.6×10^8 silica beads with a 5.02 μm diameter (10 μl of 10% solids, Bangs Labs, Catalog #SS05N) were washed three times with PBS, mixed with 1 mM SUVs in PBS and incubated at room temperature for 0.5-2 hours with end-over-end mixing to allow for bilayer formation. Beads were then washed three times with PBS to remove excess SUVs and incubated in 100 μl of 0.2% casein (Sigma, catalog #C5890) in PBS for 15 min before protein coupling. […] Purified CD47^ext-His10 was added at […]. Proteins were coupled to the bilayer for 1 hour at room temperature with end-over-end mixing.
# Unless otherwise noted, macrophages remained in culture media (DMEM with 10% heat inactivated serum) throughout the experiment. ˜8×10^5 beads were added to well and engulfment was allowed to proceed for 30 min. Cells were fixed with 4% PFA and stained with CellMask (ThermoFisher, catalog #C10045) without membrane permeabilization to label cell boundaries.
# [2] = test system: L1210 murine leukemia cells; test: Whole cell internalization assay, 8 hr timelapse imaging; assay type: cell-based, mouse; details: 100 μM manganese, bone marrow derived macrophages
# Method: For timelapse imaging, 30,000 primary bone marrow derived macrophages infected with GFP-CAAX were plated in a 96-well glass bottom MatriPlate (Brooks, Catalog #MGB096-1-2-LG-L). 2 hours prior to imaging, cells were washed into serum-free, phenol free DMEM for imaging. Manganese (SigmaAldrich, M8054) was added at 100 μM 30 min prior to imaging. When indicated, CD47 function-blocking antibody clone miap301 (Biolegend, 127520) was used at […]. 100,000 H2B-mCherry expressing L1210 cells were added and the co-culture was imaged for 8 hr.
smiles,measurement,setting,value
"[Mn+2] [manganese, Manganese]",engulfment of control IgM-treated RBCs,[1],not control IgM-treated RBCs
same,engulfment of complement-opsonized RBCs,"[1]; RAW264.7 macrophages, 1 hour",dramatically increased engulfment of complement-opsonized RBCs
same,engulfment of IgG beads with versus without CD47,"RAW264.7 macrophages; macrophages treated with 1 mM manganese, beads with IgG and CD47 or non-signaling CD47 F37D,T115K",engulfed beads with a similar efficiency whether or not CD47 was conjugated to the supported lipid bilayer
same,engulfment of IgG-coated beads in the absence of CD47,RAW264.7 macrophages,did not trigger bead engulfment on its own or dramatically enhance engulfment of IgG-coated beads in the absence of CD47
same,engulfment of IgG-coated beads in the absence of CD47,RAW264.7 macrophages; listed as Mn2+,did not dramatically enhance engulfment
same,bead engulfment triggered on its own,"RAW264.7 macrophages; manganese, no IgG",did not trigger bead engulfment on its own
same,macrophages engulfing a cancer cell,[2],increased the ability of macrophages to engulf cancer cells; also recorded: allowed for engulfment of whole cancer cells; also recorded: can drive engulfment of whole cancer cells
